Experimental data as given in patent US6245796A, “Tricyclic pyrrole or pyrazole derivative” (priority 1997, dated 2001).
Where a name gives a salt, the structure may show the parent alone. Read-outs that look alike come from different tables or passages of the source.

Tests used:
5-HT2C receptor = assay: [3H] 5-HT binding assay, 5-HT2C receptor; conditions: Ki=IC50/(1+[L]/[Kd]), read-out: Binding test Ki, 5-HT2C receptor
Experimental: (§1) The 5-HT2C and 5-HT2A receptors: Carried out by [^3 H] 5-HT binding assay in accordance with the method of A. Pazos et al., Eur. J. Pharmacol., 106, 539-546 (1985) or S. Havlik and S. J. Peroutka, Brain Res., 584, 191-196 (1992).
(§2) Using the above method, a drug concentration which inhibits 50% of receptor binding of ligand (IC50 value) was calculated, and a Ki value which represents affinity for the receptor was obtained by the following formula.
(§3) ([L]: ligand concentration, [Kd]: dissociation constant)

5-HT2A receptor = 5-HT2A receptor (Homo sapiens, UniProt P28223); assay: biochemical; type: binding
Sequence of 5-HT2A receptor (P28223 whole entry): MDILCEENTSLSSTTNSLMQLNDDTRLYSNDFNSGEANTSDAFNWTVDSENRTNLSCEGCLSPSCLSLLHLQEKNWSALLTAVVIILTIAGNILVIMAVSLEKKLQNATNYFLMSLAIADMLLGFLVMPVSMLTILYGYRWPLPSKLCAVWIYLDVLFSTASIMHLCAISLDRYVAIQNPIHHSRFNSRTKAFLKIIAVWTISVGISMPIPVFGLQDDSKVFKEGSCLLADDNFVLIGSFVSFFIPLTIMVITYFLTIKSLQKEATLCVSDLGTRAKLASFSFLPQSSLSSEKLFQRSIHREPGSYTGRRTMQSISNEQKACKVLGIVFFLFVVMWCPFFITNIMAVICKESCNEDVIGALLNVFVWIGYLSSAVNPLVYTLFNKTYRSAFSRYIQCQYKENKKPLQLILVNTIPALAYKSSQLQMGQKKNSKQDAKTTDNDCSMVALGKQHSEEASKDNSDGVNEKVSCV
Experimental: as §1, §2, §3

| Compound | Ki (5-HT2C receptor) [nM] | Ki (5-HT2A receptor) [nM] | Ki (5-HT2A receptor; [3H] 5-HT binding, Ki=IC50/(1+[L]/[Kd]), read-out: Binding test Ki, 5-HT2A receptor) [nM] |
| --- | --- | --- | --- |
| NCCn1ncc2ccc3sc(Br)cc3c21 [Example 20, 2-(7-Bromo-1H-thieno[2,3-g]indazol-1-yl)ethylamine hydrochloride] | 0.8 | 18 |  |
| COc1nn(C[C@H](C)N)c2c1ccc1occc12 [Example 37, (S)-2-(3-Methoxy-1H-furo[2,3-g]indazol-1-yl)-1-methylethylamine fumarate] | 0.5 |  | 8.7 |
| CCc1nn(CCN)c2c1ccc1occc12 [Example 55, 2-(3-Ethyl-1H-furo[2,3-g]indazol-1-yl)ethylamine dihydrochloride] | 4.1 | 50 |  |
